Values of other authors, collected in US6004969A (National Science Council, priority 1997, dated 1999).

What was measured:
[1] = oral administration; words
animal paw swelling = conditions: topical use; words

| SMILES | first pass effect [1] | gastrointestinal absorption [1] | inhibition of animal paw swelling (animal paw swelling) |
| --- | --- | --- | --- |
| CO[C@]12CC[C@@]3(C[C@@H]1[C@](C)(O)C(C)(C)C)[C@H]1Cc4ccc(O)c5c4[C@@]3(CCN1CC1CC1)[C@H]2O5 [Buprenorphine, 21-cyclo-propylmethyl-7-α-[(S)-1-hydroxy-1,2,2-trimethylpropyl]-6,14-endoethano-6,7,8,14-tetrahydroripavine] | high first pass effect | poor gastrointestinal absorption |  |
| CC1(C)[C@@H](O)CC[C@]2(C)[C@H]3C(=O)C=C4[C@@H]5C[C@@](C)(C(=O)O)CC[C@]5(C)CC[C@@]4(C)[C@]3(C)CC[C@@H]12 [glycyrrhetinic acid] |  |  | can inhibit animal paw swelling |
| CC1(C)[C@@H](O[C@H]2O[C@H](C(=O)O)[C@@H](O)[C@H](O)[C@H]2O[C@@H]2O[C@H](C(=O)O)[C@@H](O)[C@H](O)[C@H]2O)CC[C@]2(C)[C@H]3C(=O)C=C4[C@@H]5C[C@@](C)(C(=O)O)CC[C@]5(C)CC[C@@]4(C)[C@]3(C)CC[C@@H]12 [glycyrrhizic acid] |  |  | can inhibit animal paw swelling |
